{
  "source": "ChEMBL document CHEMBL4813985",
  "about": "“Lead optimization generates selenium-containing miconazole CYP51 inhibitors with improved pharmacological profile for the treatment of fungal infections” (Eur J Med Chem, 2021)",
  "key": {"Cryptococcus neoformans": {"system": "Cryptococcus neoformans", "assay": "Antifungal activity against Cryptococcus neoformans CMGCC2.3161 measured after 72 hrs by broth microdilution assay", "format": "functional"}, "Candida albicans [1]": {"system": "Candida albicans", "assay": "Antifungal activity against fluconazole-resistant Candida albicans CaR assessed as inhibition of microbial growth after 24 hrs by broth microdilution method", "format": "functional"}, "Candida albicans [2]": {"system": "Candida albicans", "assay": "Antifungal activity against fluconazole-resistant Candida albicans 17# assessed as inhibition of microbial growth after 24 hrs by broth microdilution method", "format": "functional"}, "Candida albicans [3]": {"system": "Candida albicans", "assay": "Antifungal activity against fluconazole-resistant Candida albicans 632 assessed as inhibition of microbial growth after 24 hrs by broth microdilution method", "format": "functional"}, "Candida albicans [4]": {"system": "Candida albicans", "assay": "Antifungal activity against fluconazole-resistant Candida albicans 901 assessed as inhibition of microbial growth after 24 hrs by broth microdilution method", "format": "functional"}, "Candida albicans [5]": {"system": "Candida albicans", "assay": "Antifungal activity against fluconazole-resistant Candida albicans 904 assessed as inhibition of microbial growth after 24 hrs by broth microdilution method", "format": "functional"}, "HL-60": {"system": "HL-60", "assay": "Cytotoxicity against human HL-60 cells assessed as reduction in cell viability incubated for 96 hrs by MTT assay", "format": "cell-based", "conditions": "HL-60, 96 h"}, "MCF-10A": {"system": "MCF-10A", "assay": "Cytotoxicity against human MCF-10A cells assessed as reduction in cell viability incubated for 96 hrs by MTT assay", "format": "cell-based", "conditions": "read-out: IC50"}, "[6]": {"molecular_target": "T1, Lanosterol 14-alpha demethylase (Candida albicans (strain SC5314 / ATCC MYA-2876) (Yeast), UniProt P10613)", "T1 sequence (P10613 whole entry)": "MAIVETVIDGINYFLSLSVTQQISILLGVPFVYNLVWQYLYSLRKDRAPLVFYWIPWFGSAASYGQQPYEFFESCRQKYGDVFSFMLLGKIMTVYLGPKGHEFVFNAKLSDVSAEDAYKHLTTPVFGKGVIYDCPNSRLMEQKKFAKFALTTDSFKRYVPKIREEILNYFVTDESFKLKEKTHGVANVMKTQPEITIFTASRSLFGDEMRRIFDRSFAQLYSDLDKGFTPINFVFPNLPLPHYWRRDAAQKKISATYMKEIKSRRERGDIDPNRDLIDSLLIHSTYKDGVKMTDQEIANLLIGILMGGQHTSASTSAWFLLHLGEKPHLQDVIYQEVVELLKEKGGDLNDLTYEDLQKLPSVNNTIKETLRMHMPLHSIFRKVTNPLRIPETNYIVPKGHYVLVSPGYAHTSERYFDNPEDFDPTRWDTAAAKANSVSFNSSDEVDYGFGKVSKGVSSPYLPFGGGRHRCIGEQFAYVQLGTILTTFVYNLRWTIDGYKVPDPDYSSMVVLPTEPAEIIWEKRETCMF", "assay": "Inhibition of CYP51 in Candida albicans ATCC SC5314 assessed as ergosterol level at 0.5 ug/ml after 16 hrs by GC-MS analysis (reference value: 98.3%)", "set-up": "scale not given: the % may be the effect or the level left", "conditions": "candida albicans sc5314, 16 h, at 0.5 µg/mL"}, "[7]": {"molecular_target": "T1, Lanosterol 14-alpha demethylase", "assay": "Inhibition of CYP51 in Candida albicans ATCC SC5314 assessed as lanosterol level at […] ug/ml after 16 hrs by GC-MS analysis (reference value: 1.7%)", "set-up": "scale not given: the % may be the effect or the level left", "conditions": "candida albicans sc5314, 16 h, dose 0.125 µg/ml"}, "[8]": {"molecular_target": "T1, Lanosterol 14-alpha demethylase", "assay": "Inhibition of CYP51 in Candida albicans ATCC SC5314 assessed as lanosterol level at 0.5 ug/ml after 16 hrs by GC-MS analysis (reference value: 1.7%)", "set-up": "scale not given: the % may be the effect or the level left", "conditions": "candida albicans sc5314, 16 h, at 0.5 µg/mL"}, "[9]": {"molecular_target": "T1, Lanosterol 14-alpha demethylase", "assay": "Inhibition of CYP51 in Candida albicans ATCC SC5314 assessed as Eburicol level at 0.5 ug/ml after 16 hrs by GC-MS analysis (reference value: 0%)", "set-up": "scale not given: the % may be the effect or the level left", "conditions": "candida albicans sc5314, 16 h, at 0.5 µg/mL"}, "[10]": {"molecular_target": "T1, Lanosterol 14-alpha demethylase", "assay": "Inhibition of CYP51 in Candida albicans ATCC SC5314 assessed as Eburicol level at 2 ug/ml after 16 hrs by GC-MS analysis (reference value: 0%)", "set-up": "scale not given: the % may be the effect or the level left", "conditions": "candida albicans sc5314, 16 h, at 2 µg/mL"}, "Candida albicans [11]": {"system": "Candida albicans", "assay": "Anti-biofilm activity in Candida albicans CPCC400616 assessed as inhibition of biofilm formation incubated for 24 hrs with 3 hrs precultured fungal suspension by XTT assay", "format": "functional"}, "Candida albicans [12]": {"system": "Candida albicans", "assay": "Antifungal activity against Candida albicans ATCC SC5314 infected in mouse model of candidiasis assessed as reduction in kidney fungal burden at 0.6 mg/kg/day, ip dosed at 2 hrs post infection and dosed for 4 days", "format": "functional, organism-based", "conditions": "time 4.0 day"}, "Candida albicans [13]": {"system": "Candida albicans", "assay": "Antifungal activity against Candida albicans ATCC SC5314 infected in mouse model of candidiasis assessed as reduction in kidney fungal burden at 0.4 mg/kg/day, ip dosed at 2 hrs post infection and dosed for 4 days", "format": "functional, organism-based", "conditions": "time 4.0 day"}, "[14]": {"assay": "AUC (0 to t) in Sprague-Dawley rat at 2 mg/kg, iv by LC-MS analysis", "format": "ADME, organism-based", "set-up": "dose 2 mg/kg", "conditions": "in vivo"}, "[15]": {"assay": "AUC (0 to t) in Sprague-Dawley rat at 5 mg/kg, po by LC-MS analysis", "format": "ADME, organism-based", "set-up": "dose 5 mg/kg", "conditions": "in vivo"}, "[16]": {"assay": "Half life in Sprague-Dawley rat at 2 mg/kg, iv by LC-MS analysis", "format": "ADME, organism-based", "conditions": "in vivo"}, "[17]": {"assay": "Half life in Sprague-Dawley rat at 5 mg/kg, po by LC-MS analysis", "format": "ADME, organism-based", "conditions": "in vivo"}, "[18]": {"assay": "Oral bioavailability in Sprague-Dawley rat at 5 mg/kg by LC-MS analysis", "format": "ADME, organism-based", "conditions": "in vivo"}, "[19]": {"assay": "Selectivity ratio of IC50 for human HL-60 cells to MIC for Candida albicans CPCC400616", "format": "toxicity"}, "[20]": {"assay": "Selectivity ratio of IC50 for human MDA-MB-231 cells to MIC for Candida albicans CPCC400616", "format": "toxicity"}, "[21]": {"assay": "Selectivity ratio of IC50 for human PC-3 cells to MIC for Candida albicans CPCC400616", "format": "toxicity"}, "[22]": {"assay": "Selectivity ratio of IC50 for human MCF-10A cells to MIC for Candida albicans CPCC400616", "format": "toxicity"}, "Candida albicans [23]": {"system": "Candida albicans", "assay": "Potency index, ratio of fluconazole MIC to test compound MIC for Candida albicans CPCC400616 measured after 24 hrs by broth microdilution assay", "format": "functional"}, "Candida albicans [24]": {"system": "Candida albicans", "assay": "Fungicidal activity against Candida albicans CPCC400616 at 2 ug/ml incubated within 8 hrs and measured after 24 hrs culturing on PDA plate by time-kill kinetics analysis (reference value: 5 log10CFU/ml)", "format": "functional", "conditions": "dose 2 µg/ml; time 32 hrs"}, "Candida albicans [25]": {"system": "Candida albicans", "assay": "Fungicidal activity against Candida albicans CPCC400616 incubated for 24 hrs and measured after 24 hrs culturing on PDA plate by time-kill kinetics analysis", "format": "functional, organism-based", "conditions": "dose 0.25-2 µg/ml, time 48.0 hrs"}, "Candida albicans [26]": {"system": "Candida albicans", "assay": "Anti-biofilm activity in Candida albicans CPCC400616 assessed as inhibition of biofilm formation at 16 ug/ml incubated for 24 hrs with 3 hrs precultured fungal suspension by XTT assay relative to control", "format": "functional"}, "Erythrocyte": {"system": "Erythrocyte", "assay": "Hemolytic activity in rabbit RBC measured after 3 hrs by microplate reader assay", "format": "ADME, cell-based, Oryctolagus cuniculus"}, "Candida albicans [27]": {"system": "Candida albicans", "assay": "Ratio of MFC for Candida albicans CPCC400616 incubated for 48 hrs followed by culturing on PDA plate for 24 hrs to MIC for Candida albicans CPCC400616 measured after 24 hrs", "format": "functional"}, "Candida albicans [28]": {"system": "Candida albicans", "assay": "Fungicidal activity against Candida albicans CPCC400616 at 2 ug/ml incubated for 24 hrs and measured after 24 hrs culturing on PDA plate by time-kill kinetics analysis", "format": "functional, organism-based", "conditions": "dose 2.0 µg/ml, time 48.0 hrs"}, "Candida albicans [29]": {"system": "Candida albicans", "assay": "Anti-biofilm activity in Candida albicans CPCC400616 assessed as inhibition of biofilm formation at 32 ug/ml incubated for 24 hrs with 3 hrs precultured fungal suspension by XTT assay relative to control", "format": "functional"}},
  "note": "Active and inactive are the calls of the source. The rule behind the calls is not given here.",
  "data": [
    {"compound": "Fc1ccc([Se]C(Cn2ccnc2)c2ccc(F)cc2F)cc1", "note": "(stereo not drawn)", "values": [
      {"measurement": "MIC", "setting": "Cryptococcus neoformans", "result": 0.5, "unit": "µg/mL"},
      {"measurement": "MIC", "setting": "Candida albicans [1]", "result": 1, "unit": "µg/mL"},
      {"measurement": "MIC", "setting": "Candida albicans [2]", "result": 0.06, "unit": "µg/mL"},
      {"measurement": "MIC", "setting": "Candida albicans [3]", "result": 0.5, "unit": "µg/mL"},
      {"measurement": "MIC", "setting": "Candida albicans [4]", "result": 0.5, "unit": "µg/mL"},
      {"measurement": "MIC", "setting": "Candida albicans [5]", "result": 0.06, "unit": "µg/mL"},
      {"measurement": "IC50", "setting": "HL-60", "result": 24.8, "unit": "µM"},
      {"measurement": "IC50", "setting": "MCF-10A", "result": 59.4, "unit": "µM"},
      {"measurement": "Activity", "setting": "[6]", "result": 4.9, "unit": "%"},
      {"measurement": "Activity", "setting": "[7]", "result": 9.9, "unit": "%"},
      {"measurement": "Activity", "setting": "[8]", "result": 10.1, "unit": "%"},
      {"measurement": "Activity", "setting": "[9]", "result": 75.1, "unit": "%"},
      {"measurement": "Activity", "setting": "[10]", "result": 78, "unit": "%"},
      {"measurement": "MIC50", "setting": "Candida albicans [11]", "result": 8, "unit": "µg/mL"},
      {"measurement": "MIC80", "setting": "Candida albicans [11]", "result": 16, "unit": "µg/mL"},
      {"measurement": "Activity", "setting": "Candida albicans [12]", "result": "Active"},
      {"measurement": "Activity", "setting": "Candida albicans [13]", "result": "Active"},
      {"measurement": "AUC(0-t)", "setting": "[14]", "result": 2250, "unit": "ng·h/mL"},
      {"measurement": "AUC(0-t)", "setting": "[15]", "result": 1260, "unit": "ng·h/mL"},
      {"measurement": "half-life", "setting": "[16]", "result": 1.89, "unit": "h"},
      {"measurement": "half-life", "setting": "[17]", "result": 1.93, "unit": "h"},
      {"measurement": "bioavailability", "setting": "[18]", "result": 22.3, "unit": "%"},
      {"measurement": "selectivity ratio", "setting": "[19]", "result": 38},
      {"measurement": "selectivity ratio", "setting": "[20]", "result": 38},
      {"measurement": "selectivity ratio", "setting": "[21]", "result": 38},
      {"measurement": "selectivity ratio", "setting": "[22]", "result": 38},
      {"measurement": "Ratio", "setting": "Candida albicans [23]", "result": 8},
      {"measurement": "Activity", "setting": "Candida albicans [24]", "result": 2, "unit": "log10CFU/ml"},
      {"measurement": "Activity", "setting": "Candida albicans [25]", "result": "Dose-Dependent Effect"},
      {"measurement": "inhibition at 16 µg/mL", "setting": "Candida albicans [26]", "result": 80, "unit": "%"}
    ]},
    {"compound": "Clc1ccc(COC(Cn2ccnc2)c2ccc(Cl)cc2Cl)c(Cl)c1", "note": "(stereo not drawn) [MICONAZOLE]", "values": [
      {"measurement": "MIC", "setting": "Cryptococcus neoformans", "result": 0.5, "unit": "µg/mL"},
      {"measurement": "IC50", "setting": "HL-60", "result": 0.8, "unit": "µM"},
      {"measurement": "Activity", "setting": "[6]", "result": 7.1, "unit": "%"},
      {"measurement": "Activity", "setting": "[7]", "result": 9.5, "unit": "%"},
      {"measurement": "Activity", "setting": "[8]", "result": 8.9, "unit": "%"},
      {"measurement": "Activity", "setting": "[9]", "result": 75.1, "unit": "%"},
      {"measurement": "Activity", "setting": "[10]", "result": 75.2, "unit": "%"},
      {"measurement": "MIC50", "setting": "Candida albicans [11]", "result": 32, "unit": "µg/mL"},
      {"measurement": "MIC80", "setting": "Candida albicans [11]", "result": 128, "unit": "µg/mL"},
      {"measurement": "MHC", "setting": "Erythrocyte", "result": 8, "unit": "µg/mL"},
      {"measurement": "Ratio", "setting": "Candida albicans [27]", "result": 8},
      {"measurement": "Activity", "setting": "Candida albicans [28]", "result": "Active"},
      {"measurement": "inhibition at 32 µg/mL", "setting": "Candida albicans [29]", "result": 50, "unit": "%"}
    ]}
  ]
}
